Laboratory results taken from patent US4665169A, “Carbapenem antibiotics” (Bristol-Myers Company, priority 1985, dated 1987).
Values after ≈ are worked out from the molar mass of the structure shown. Where two headings read alike, the source gives them in different places.

Assays:
[1] = tested on: various Pseudomonas species; details: prior art statement; cited from earlier work
S. pyogenes A-9604 = assay: In vitro antibacterial activity, MIC by tube dilution; assay type: cell-based; details: overnight 37° C., Nutrient Broth
[2] = tested on: S. aureus (Penicillin-resistant) A-9606; assay: as above; assay type: cell-based; details: Staphylococcus aureus, Nutrient Broth
[3] = tested on: P. aeruginosa (Carbenicillin-resistant) A21213; assay: microbe, parasite or virus in culture; details: Pseudomonas aeruginosa
P. aeruginosa A9843a = assay: In vivo activity, 50% protective dose in infected mice; details: Pseudomonas aeruginosa, im, 120 h, i.m., immediately and 2 hour post-infection, deaths over five days, read-out: PD50 (50% protective dose)
Experimental: BHI broth (9.0 ml) was inoculated with a loopful of thawed stock suspension of P. aeruginosa A9843a and incubated for 18 hr at 37° C. A volume of 0.5 ml of the 18 hr culture was added to 20 ml BHI broth and incubated for 3 hr. with constant shaking at 37° C. A 1/10,000 dilution of the shaker culture was prepared in 0.4% hog gastric mucin. Mice were infected by the intraperitoneal route with 0.5 ml of the bacterial suspension (corresponding to 6.0×10^4 viable cells/mouse).
Each mouse received a volume of 0.2 ml intramuscularly. Deaths were recorded over a period of five days following infection at which time the PD50 for the compound was determined by estimation of the 50% end-point using the probit analysis plot.

S. aureus A-9537 [4] = assay: In vitro antibacterial activity, MIC by tube dilution; assay type: cell-based; details: overnight 37° C., Nutrient Broth
P. vulgaris A21559 = assay: as above; assay type: cell-based; details: overnight 37° C., Nutrient Broth
[5] = tested on: P. aeruginosa (Carbenicillin-resistant) A21213; details: Lot# 1794-27, overnight 37° C., Nutrient Broth
S. marcescens A20019 = assay: In vitro antibacterial activity, MIC by tube dilution; assay type: cell-based; details: overnight 37° C., Nutrient Broth
S. pneumoniae A-9585 = assay: as above; assay type: cell-based; details: Streptococcus pneumoniae, overnight 37° C., Nutrient Broth
E. cloacae A-9659 = assay: as above; assay type: cell-based; details: Enterobacter cloacae, A9659, Lot# 1794-27; overnight 37° C., Nutrient Broth
S. aureus A-9537 [6] = assay: In vitro antibacterial activity, MIC by tube dilution, 50% serum; assay type: cell-based
[7] = Blood levels in mice after intramuscular dosing; assay type: in vivo; details: mouse, im, 20 mg/kg; for AUC / Cmax / Tmax / half-life: 20 mg/kg i.m.; for concentration at 10 min: 10 min after 20 mg/kg i.m.; for concentration at 20 min: 20 min after 20 mg/kg i.m.; for concentration at 0.5 h: 30 min after 20 mg/kg i.m.; for concentration at 0.75 h: 45 min after 20 mg/kg i.m.; for concentration at 1 h: 60 min after 20 mg/kg i.m.; for concentration at 1.5 h: 90 min after 20 mg/kg i.m.
Experimental: For the determination of blood levels, two groups of mice were used. Each group consisted of four 20 g mice. Prior to dosing (5-10 min.) one of the groups received an i.p. injection of a dipeptidase inhibitor (BCH-1) at a level of 10 mg/kg.

E. cloacae A-9656 = assay: In vitro antibacterial activity, MIC by tube dilution; assay type: cell-based; details: Enterobacter cloacae, A9656, Lot# 1794-27; overnight 37° C., Nutrient Broth
Urinary recovery in mice = assay type: in vivo; details: mouse, urine; for dose excreted at 3 h: 0-3 hr.
Experimental: Two groups of mice were used for the urinary recovery evaluation. Each group consisted of four 20 g mice. Prior to dosing (5-10 minutes) one of the groups received an i.p. injestion of a dipeptidase inhibitor (BCH-1) at a level of 10 mg/kg. Following dosing, animals were placed in individual metabolism cages and the urine collected over ice at intervals of 0-3 and 3-6 hr. Animals were fasted overnight and a dextrose-amino acid solution was available ad libitum starting one hour before drug administration through six hours of urine collection. Urine samples were assayed for biological activity using sensitive assay plates containing B. subtilis ATCC 6633.

K. pneumoniae A-9664 = assay: In vitro antibacterial activity, MIC by tube dilution; assay type: cell-based; details: Klebsiella pneumoniae, A9664; Lot# 1794-20; overnight 37° C., Nutrient Broth
E. coli A15119 = assay: as above; assay type: cell-based; details: Escherichia coli, overnight 37° C., Nutrient Broth
P. mirabilis A-9900 = assay: as above; assay type: cell-based; details: overnight 37° C., Nutrient Broth
P. aeruginosa A-9843A = assay: as above; assay type: cell-based; details: overnight 37° C., Nutrient Broth
S. faecalis A20688 = assay: as above; assay type: cell-based; details: overnight 37° C., Nutrient Broth
K. pneumoniae A20468 = assay: as above; assay type: cell-based; details: Klebsiella pneumoniae, A20468, Lot# 1794-27; overnight 37° C., Nutrient Broth
E. coli A20341-1 = assay: as above; assay type: cell-based; details: Escherichia coli, overnight 37° C., Nutrient Broth
[8] = Half-life in pH 7.4 biological buffer; assay type: physicochemical; details: 37° C.
Experimental: To a cooled (5° C.) solution of (5R,6S)p-nitrobenzyl-6-(1^1 R-hydroxyethyl)-4R-methyl-3-(1-methyl-4-thiatetrahydrothiopyranium)-7-oxo- 1-azabicyclo[3.2.0]hept-2-ene-2-carboxyl-diphenylphosphate (2.40 g, 3.23 mmol) in tetrahydrofuran (240 mL) and 0.05M pH 7.0 phosphate buffer (240 mL) was added ether (240 mL) and 10% Pd/C (2.4 g). The mixture was hydrogenated in a Paar apparatus at 45 psi H2 at 15° C. for 1 hour. The solution was then filtered through glass fiber paper and the catalyst was washed with water (25 mL). The aqueous phase of the filtrate was washed with ether (2×100 mL) and purged under vacuum to remove any trace of organic solvent. The product was purified by reversed phase chromatography on μBondapak C-18 silica gel (100 g) using mixtures of acetonitrile-water as the eluent (10% CH3 CN--H2 O, quantity mL; 0%, 500 mL; 2%, 500 mL; 4%, 500 mL; 10%, 250 mL) to give 1.08 g of impure proudct. After lyophilization, this product and a 0.020 g sample from another experiment (starting from 0.067 mmol of the ester) was purified by hplc (hplc data re: C18 μBondapak, using 5% CH3 CN--H2 O at 4 mL/min, R. I. detector) to give 328 mg. […]

Structure (SMILES): C[C@@H](O)[C@H]1C(=O)N2C(C(=O)O)=C(SCCN)C[C@H]12 [Thienamycin, thienamycin]
- activity against various Pseudomonas species [1]: notable activity

Structure (SMILES): C[C@@H](O)[C@H]1C(=O)N2C(C(=O)[O-])=C(SC3CC[S+](C)CC3)C[C@H]12 (some centres unmarked) [Example 1]
- MIC (S. pyogenes A-9604; Lot# 1794-27): 4 ng/mL (≈ 0.0116 µM)
- MIC (S. pyogenes A-9604; Streptococcus pyogenes, A9604, Lot# 1794-20, read-out: MIC): 4 ng/mL (≈ 0.0116 µM)
- MIC ([2]; Lot# 1794-20, overnight 37° C.): 0.016 µg/mL (≈ 0.0466 µM)
- MIC ([2]; Lot# 1794-27, overnight 37° C.): 0.03 µg/mL (≈ 0.0873 µM)
- MIC [3]: 0.25 µg/mL (≈ 0.728 µM)
- ED50 (P. aeruginosa A9843a): 0.71 mg/kg
- MIC (S. aureus A-9537 [4]; Lot# 1794-27): 8 ng/mL (≈ 0.0233 µM)
- MIC (S. aureus A-9537 [4]; Staphylococcus aureus, A9537, Lot# 1794-20, read-out: MIC): 8 ng/mL (≈ 0.0233 µM)
- MIC (P. vulgaris A21559; Lot# 1794-27): 0.016 µg/mL (≈ 0.0466 µM)
- MIC (P. vulgaris A21559; Proteus vulgaris, A21559, Lot# 1794-20, read-out: MIC): 0.016 µg/mL (≈ 0.0466 µM)
- MIC [5]: 0.25 µg/mL (≈ 0.728 µM)
- MIC (S. marcescens A20019; Lot# 1794-27): 0.03 µg/mL (≈ 0.0873 µM)
- MIC (S. marcescens A20019; Serratia marcescens, A20019, Lot# 1794-20, read-out: MIC): 0.03 µg/mL (≈ 0.0873 µM)
- MIC (S. pneumoniae A-9585; A9585, Lot# 1794-20): 1 ng/mL (≈ 0.00291 µM)
- MIC (S. pneumoniae A-9585; A9585, Lot# 1794-27): 2 ng/mL (≈ 0.00582 µM)
- MIC (E. cloacae A-9659): 0.25 µg/mL (≈ 0.728 µM)
- MIC (S. aureus A-9537 [6]; Lot# 1794-27, overnight 37° C.): 0.016 µg/mL (≈ 0.0466 µM)
- MIC (S. aureus A-9537 [6]; Staphylococcus aureus, A9537, Lot# 1794-20, overnight 37° C., read-out: MIC): 0.016 µg/mL (≈ 0.0466 µM)
- AUC ([7]; with BCH-1 10 mg/kg i.p.): 10900 ng·h/mL
- Cmax ([7]; with BCH-1 10 mg/kg i.p.): 16100 ng/mL
- Tmax ([7]; with BCH-1 10 mg/kg i.p.): 20 min
- half-life ([7]; with BCH-1 10 mg/kg i.p.): 10 min
- AUC ([7]; without BCH-1): 6800 ng·h/mL
- Cmax ([7]; without BCH-1): 15400 ng/mL
- Tmax ([7]; without BCH-1): 10 min
- half-life ([7]; without BCH-1): 9 min
- concentration at 10 min ([7]; with BCH-1 10 mg/kg i.p.): 15400 ng/mL
- concentration at 10 min ([7]; without BCH-1): 15400 ng/mL
- concentration at 20 min ([7]; with BCH-1 10 mg/kg i.p.): 16100 ng/mL
- concentration at 20 min ([7]; without BCH-1): 11400 ng/mL
- concentration at 0.5 h ([7]; with BCH-1 10 mg/kg i.p.): 12600 ng/mL
- concentration at 0.5 h ([7]; without BCH-1): 7200 ng/mL
- concentration at 0.75 h ([7]; with BCH-1 10 mg/kg i.p.): 7400 ng/mL
- concentration at 0.75 h ([7]; without BCH-1): 2900 ng/mL
- concentration at 1 h ([7]; with BCH-1 10 mg/kg i.p.): 3000 ng/mL
- concentration at 1 h ([7]; without BCH-1): 700 ng/mL
- concentration at 1.5 h ([7]; with BCH-1 10 mg/kg i.p.): 300 ng/mL
- concentration at 1.5 h ([7]; without BCH-1): 300 ng/mL
- MIC (E. cloacae A-9656): 0.25 µg/mL (≈ 0.728 µM)
- dose excreted at 3 h (Urinary recovery in mice; with BCH-1 10 mg/kg i.p., read-out: Percent Recovered (urine)): 67%
- dose excreted at 3 h (Urinary recovery in mice; without BCH-1, read-out: Percent Recovered (urine)): 44%
- dose excreted at 6 h (Urinary recovery in mice; 0-6 hr., with BCH-1 10 mg/kg i.p., read-out: Percent Recovered (urine)): 67.1%
- dose excreted at 6 h (Urinary recovery in mice; 0-6 hr., without BCH-1, read-out: Percent Recovered (urine)): 44.2%
- dose excreted at 6 h (Urinary recovery in mice; 3-6 hr., with BCH-1 10 mg/kg i.p., read-out: Percent Recovered (urine)): 0.1%
- dose excreted at 6 h (Urinary recovery in mice; 3-6 hr., without BCH-1, read-out: Percent Recovered (urine)): 0.2%
- MIC (K. pneumoniae A-9664): 0.03 µg/mL (≈ 0.0873 µM)
- MIC (E. coli A15119; A15119, Lot# 1794-20): 0.008 µg/mL (≈ 0.0233 µM)
- MIC (E. coli A15119; A15119, Lot# 1794-27): 0.016 µg/mL (≈ 0.0466 µM)
- MIC (P. mirabilis A-9900; Lot# 1794-27): 0.016 µg/mL (≈ 0.0466 µM)
- MIC (P. mirabilis A-9900; Proteus mirabilis, A9900, Lot# 1794-20, read-out: MIC): 0.016 µg/mL (≈ 0.0466 µM)
- MIC (P. aeruginosa A-9843A; Lot# 1794-27): 2 µg/mL (≈ 5.82 µM)
- MIC (P. aeruginosa A-9843A; Pseudomonas aeruginosa, A9843A, Lot# 1794-20, read-out: MIC): 2 µg/mL (≈ 5.82 µM)
- MIC (S. faecalis A20688; Enterococcus faecalis, A20688, Lot# 1794-20, read-out: MIC): 0.5 µg/mL (≈ 1.46 µM)
- MIC (S. faecalis A20688; Lot# 1794-27): 0.5 µg/mL (≈ 1.46 µM)
- MIC (K. pneumoniae A20468): 0.25 µg/mL (≈ 0.728 µM)
- MIC (E. coli A20341-1; A203411, Lot# 1794-20): 0.016 µg/mL (≈ 0.0466 µM)
- MIC (E. coli A20341-1; A203411, Lot# 1794-27): 0.03 µg/mL (≈ 0.0873 µM)

Structure (SMILES): C[C@@H](O)[C@H]1C(=O)N2C(C(=O)[O-])=C(SC3CC[S+](C)CC3)[C@H](C)[C@H]12 (stereo partly drawn) [Example 2, (5R,6S)-6-(1R-hydroxyethyl)-4R-methyl-3-(1-methyl-4-thiatetrahydrothiopyranium)-7-oxo-1-azabicyclo[3.2.0]-hept-2-ene-2-carboxylate]
- half-life [8]: 1800 min
